We go through two compounds from patent US10532065B2, “Bisphosphonic acid derivative and application for same” (NAGASAKI UNIVERSITY, priority 2014, dated 2020).

SMILES strings stand for the structures. Several values for one entry are separate records, joined by “and”; a condition that tells them apart may be missing. Equal entries are not always repeated. Where two headings read alike, the source gives them in different places.

Holding throughout (format): cell-based
For one assay, the system named is MOLT-3 cells. Kind of assay: MOLT-3 tumor cell growth inhibition (CellTiterGlo). The following applies: MOLT-3, Acute lymphoblastic leukemia, 4 days culture. (ATP-based viability assays read luminescence as a measure of living cells.)
For a further assay, the system named is TFK-1 cells. In words: TFK-1 tumor cell growth inhibition (CellTiterGlo). The following applies: TFK-1, Cholangiocarcinoma, 4 days culture.
Assay [1] has as its system HMC-1-8 cells / γδ T cells. In words: TNF-α production from γδ T cells stimulated by compound-pretreated HMC-1-8 cells. The following applies: HMC-1-8, Mammary carcinoma, 4 hr pretreatment, 16 hr with γδ T cells, read-out: TNF-α50. As for the experimental part: (§1) Since the above-mentioned results of Experimental Example confirm that the activity of bisphosphonic acids becomes high by POM esterification in various tumor cells, the TNF-α production induction ability of more number of tumor cells was quantitatively studied. […] Thereto was added a solution (500 μl) of compound 7 obtained by serially diluting 10 mM stock solution 10-fold from 20 μM, or a solution (500 μl) of compound 14 obtained by serially diluting 10 mM stock solution 10-fold from 200 μM, and the cells were suspended well. These conical tubes were stood at 37° C. for 4 hr, and the cells were washed 3 times with 5 ml of culture medium. To these cells was added 500 μl of medium, and the cells were suspended well. […] The cell culture medium was suspended well, and the plate was centrifuged at 1,700 rpm, 4° C. for 2 min and the culture supernatant (150 μl) was taken and placed in another round-bottomed 96 well plate. The plate was frozen at −80° C. overnight, left standing at room temperature for 1 hr, stirred well and 100 μl thereof was subjected to ELISA of TNF-α. The content of TNF-α was calculated from the analytical curve of TNF-α. These were performed in triplicate, and TNF-α50 of bisphosphonic acid POM ester derivative (compound 7) and bisphosphonic acid (compound 14) was calculated and summarized in Table 8.

A further assay deals with U937 cells. In words: U937 cell growth inhibition (direct antitumor action, CellTiterGlo). To be noted: for IC50: U937 cell growth inhibition, 4 days culture. As for the experimental part: The direct antitumor action of bisphosphonic acid POM ester and bisphosphonic acid was studied by comparison using U937.
The direct antitumor action of various bisphosphonic acid POM esters was studied by comparison using U937 and EJ-1. The measurement was performed according to Experimental Example 2 and Experimental Example 4.

The subject of a further assay is Raji cells / γδ T cells. Kind of assay: TNF-α production from γδ T cells stimulated by compound-pretreated Raji cells. The following applies: Burkitt's lymphoma, 4 hr pretreatment, 16 hr with γδ T cells, read-out: TNF-α50. The procedure:
as §1

A further assay deals with SCC-3 cells / γδ T cells. In words: TNF-α production from γδ T cells stimulated by compound-pretreated SCC-3 cells. To be noted: SCC-3, Non-Hodgkin's lymphoma, 4 hr pretreatment, 16 hr with γδ T cells, read-out: TNF-α50. The procedure: as §1
Another assay relates to THP-1 cells / γδ T cells. Kind of assay: TNF-α production from γδ T cells stimulated by compound-pretreated THP-1 cells. To be noted: THP-1, Acute monocytic leukemia, 4 hr pretreatment, 16 hr with γδ T cells, read-out: TNF-α50. The procedure: as §1
The next assay concerns PK-1 cells. In words: PK-1 tumor cell growth inhibition (CellTiterGlo). The following applies: PK-1, Pancreatic cancer, 4 days culture.
The test system of assay [2] is MRK-nu-1 cells / γδ T cells. In words: TNF-α production from γδ T cells stimulated by compound-pretreated MRK-nu-1 cells. The following applies: MRK-nu-1, Mammary carcinoma, 4 hr pretreatment, 16 hr with γδ T cells, read-out: TNF-α50. The procedure:
as §1

Another assay has as its system K562 cells. In words: K562 tumor cell growth inhibition (CellTiterGlo). The following applies: K562, Erythromcytoma, 4 days culture.
The subject of the next assay is PC-3 cells. Kind of assay: PC-3 tumor cell growth inhibition (CellTiterGlo). The following applies: PC-3, Prostate cancer, 4 days culture.
A further assay deals with LK-2 cells / γδ T cells. Kind of assay: TNF-α production from γδ T cells stimulated by compound-pretreated LK-2 cells. To be noted: LK-2, Lung cancer, 4 hr pretreatment, 16 hr with γδ T cells, read-out: TNF-α50. As for the experimental part: as §1
The next assay relates to SCC-3 cells. In words: SCC-3 tumor cell growth inhibition (CellTiterGlo). The following applies: SCC-3, Non-Hodgkin's lymphoma, 4 days culture.
Assay [3] has as its system YMB-1-E cells / γδ T cells. In words: TNF-α production from γδ T cells stimulated by compound-pretreated YMB-1-E cells. To be noted: Mammary carcinoma, 4 hr pretreatment, 16 hr with γδ T cells, read-out: TNF-α50. The procedure: as §1
Another assay deals with LK-2 cells. In words: LK-2 tumor cell growth inhibition (CellTiterGlo). To be noted: LK-2, Lung cancer, 4 days culture.
For assay [4], the system named is MOLT-4 cells / γδ T cells. In words: TNF-α production from γδ T cells stimulated by compound-pretreated MOLT-4 cells. The following applies: MOLT-4, Acute lymphoblastic leukemia, 4 hr pretreatment, 16 hr with γδ T cells, read-out: TNF-α50. The procedure:
as §1

Assay [5] deals with RAMOS-RA1 cells / γδ T cells. In words: TNF-α production from γδ T cells stimulated by compound-pretreated RAMOS-RA1 cells. The following applies: RAMOS-RA1, Burkitt's lymphoma, 4 hr pretreatment, 16 hr with γδ T cells, read-out: TNF-α50. The procedure: as §1
For a further assay, the system named is Daudi cells. Kind of assay: Daudi tumor cell growth inhibition (CellTiterGlo). The following applies: Burkitt's lymphoma, 4 days culture.
Another assay has as its system TFK-1 cells / γδ T cells. In words: TNF-α production from γδ T cells stimulated by compound-pretreated TFK-1 cells. The following applies: TFK-1, Cholangiocarcinoma, 4 hr pretreatment, 16 hr with γδ T cells, read-out: TNF-α50. As for the experimental part: as §1
The subject of another assay is THP-1 cells. In words: THP-1 tumor cell growth inhibition (CellTiterGlo). To be noted: THP-1, Acute monocytic leukemia, 4 days culture.
In the next assay the test system is K562 cells / γδ T cells. In words: TNF-α production from γδ T cells stimulated by compound-pretreated K562 cells. The following applies: K562, Erythrocytoma, 4 hr pretreatment, 16 hr with γδ T cells, read-out: TNF-α50. As for the experimental part:
as §1

A further assay relates to G-361 cells. Kind of assay: G-361 tumor cell growth inhibition (CellTiterGlo). The following applies: G-361, Melanoma, 4 days culture.

One may read the IC50 as the concentration that inhibits the measured activity by half. Read a low IC50 as greater potency in that assay.

Experimental for Daudi cells: (§2) To quantitatively study an action of compound 7, which is a bisphosphonic acid POM ester derivative, on various hematologic tumor-derived lymphoma and myeloidic leukemia cells, the concentration of a compound that inhibits cell proliferation to half was calculated as IC50, and a direct antitumor effect was studied from the value thereof. […] First, MOLT-4, THP-1, SCC-3, PEER, RAMOS-RA1, C1R, MOLT-3, Raji, U937, K562, Daudi were cultured in RPMI1640 medium supplemented with 10% calf serum at 37° C. under 5% CO2 atmosphere while maintaining log phase. The cells were recovered, and centrifuged at 1,700 rpm, 4° C. for 5 min. The supernatant was removed, and suspended in RPMI1640 medium supplemented with 10% calf serum to 500 cells/50 μl. On the other hand, 10 mM stock solution of compound 7 which is a bisphosphonic acid POM ester derivative was serially diluted 2-fold from 200 μM. In addition, 10 mM stock solution of compound 14 which is bisphosphonic acid was serially diluted 2-fold from 2 mM. Then, the cell suspension (50 μl, 500 cells) and the compound solution (50 μl) were added to a flat-bottomed 96 well plate and cultured at 37° C. under 5% CO2 atmosphere for 4 days. Then, 100 μl of CellTiterGlo solution was added, and the mixture was pipetted 10 strokes, and transferred to a 96 well OptiPlate. […]
Experimental for G-361 cells: (§3) First, EJ-1, 786-0, MKN1, OST, PC-3, PK-1, LK-2, G-361, TFK-1, MRK-nu-1 were cultured in RPMI1640 medium supplemented with 10% calf serum at 37° C. under 5% CO2 atmosphere while maintaining log phase. The cells were recovered by a conventional EDTA trypsin treatment, and centrifuged at 1,700 rpm, 4° C. for 5 min. The supernatant was removed, and suspended in RPMI1640 medium supplemented with 10% calf serum to 500 cells/50 μl. On the other hand, 10 mM stock solution of compound 7 which is a bisphosphonic acid POM ester derivative was serially diluted 2-fold from 200 pM. In addition, 10 mM stock solution of compound 14 which is bisphosphonic acid was serially diluted 2-fold from 2 mM. Then, the cell suspension (50 μl, 500 cells) and the compound solution (50 μl) were added to a flat-bottomed 96 well plate and cultured at 37° C. under 5% CO2 atmosphere for 4 days. Then, 100 μl of CellTiterGlo solution was added, and the mixture was pipetted 10 strokes, and transferred to a 96 well OptiPlate. After standing at room temperature for 10 min, the luminescence was measured by a luminometer and IC50 value was calculated.
Experimental for MOLT-3 cells: as §2
Experimental for PC-3 cells: as §3
Experimental for PK-1 cells: as §3

`CC(C)(C)C(=O)OCOP(=O)(OCOC(=O)C(C)(C)C)C(CNc1nccs1)P(=O)(OCOC(=O)C(C)(C)C)OCOC(=O)C(C)(C)C` [Compound 7, tetrakispivaloyloxymethyl 2-(thiazol-2-ylamino) ethylidene-1,1-bisphosphonate]: the IC50 with MOLT-3 cells is 130 nM; with TFK-1 cells, 100 nM; in the assay with U937 cells it was 280 nM and 260 nM; in the assay with PK-1 cells, 340 nM; with K562 cells, 29 nM; in the assay on PC-3 cells, 220 nM. Also, the IC50 came to 180 nM in the assay on SCC-3 cells; 800 nM with LK-2 cells; 430 nM in the assay on Daudi cells; 35 nM in the assay with THP-1 cells; 120 nM with G-361 cells. For the same compound, the EC50 in [1] came to 920 nM; in the assay with Raji cells / γδ T cells, 53 nM; with SCC-3 cells / γδ T cells, 81 nM; with THP-1 cells / γδ T cells, 300 nM; in assay [2], 180 nM; with LK-2 cells / γδ T cells, 97 nM. Further, the EC50 turned out to be 630 nM in [3]; 59 nM in assay [4]; 140 nM in [5]; 66 nM with TFK-1 cells / γδ T cells; 80 nM in the assay on K562 cells / γδ T cells. Moreover, the “direct antitumor activity (in words)” value in the assay with U937 cells (U937 growth inhibition) was “particularly high activity”.
As to `O=P(O)(O)C(CNc1nccs1)P(=O)(O)O` [Compound 14, 2-(thiazol-2-ylamino)ethylidene-1,1-bisphosphonic Acid, reference compound], the IC50 in the assay on MOLT-3 cells (Homo sapiens, 96 h) was 180000 nM; in the assay with TFK-1 cells (96 h), 30000 nM; with U937 cells (Homo sapiens, U-937, 96 h), 26000 nM; in the assay on PK-1 cells (96 h), 110000 nM; with K562 cells (Homo sapiens, 96 h) it was 16000 nM; in the assay on PC-3 cells (Homo sapiens, 96 h), 100000 nM. The IC50 with SCC-3 cells (Homo sapiens, 96 h) is 66000 nM; with LK-2 cells (Homo sapiens, 96 h), 35000 nM; in the assay on Daudi cells (Homo sapiens, 96 h) it was 76000 nM; in the assay with THP-1 cells (Homo sapiens, 96 h), 130000 nM; in the assay with G-361 cells (Homo sapiens, 96 h), 20000 nM. Further, the EC50 (in assay [1] (T-cell); with Raji cells / γδ T cells (Homo sapiens); with SCC-3 cells / γδ T cells (Homo sapiens); in the assay on THP-1 cells / γδ T cells (Homo sapiens); in [2] (Homo sapiens); in the assay on LK-2 cells / γδ T cells (Homo sapiens)) was greater than 100000 nM throughout. Moreover, the EC50 (in assay [3] (Homo sapiens); in assay [4] (Homo sapiens); in [5] (T-cell); in the assay with TFK-1 cells / γδ T cells (T-cell); with K562 cells / γδ T cells (Homo sapiens)) was greater than 100000 nM throughout.
